Reference: patent US10787640B2, “Producing mesodermal cell types and methods of using the same” (The Board of Trustees of the Leland Stanford Junior …, priority 2015, dated 2020)

Key:
Format in all cases: cell-based, human
SOX17-mCherry hESCs = assay: Hematopoietic mesoderm and SOX17+CD34+ hemogenic precursor specification
Protocol: (§1) SOX17^mCherry/+ H9 hESCs (referred to as SOX17-mCherry hESCs throughout this study) were routinely propagated in mTeSR1 (StemCell Technologies)+1% penicillin/streptomycin. They were passaged ˜1:12-1:25 as fine clumps using Accutase (Gibco) onto plates precoated with a Geltrex substratum (Gibco) in mTeSR1 medium supplemented with thiazovivin ([…]; a ROCK inhibitor). After overnight plating, hESCs were washed (DMEM/F12) and differentiated towards posterior PS using BMP4 (15-40 ng/mL, R&D Systems), CHIR99021 ([…]), FGF2 (20 ng/mL, Invitrogen) and PIK90 (100 nM, Calbiochem) for 24 hours, with the optional inclusion of Activin (30 ng/mL, R&D Systems) to induce mid PS. Day 1 mid or posterior PS was subsequently washed (DMEM/F12) and further differentiated using BMP4 (40 ng/mL), GDC-0941 (0.25-2.5 μM, Cellagen Technology), Forskolin (10 μM, Tocris), SB-505124 ([…]), VEGF (100 ng/mL, R&D Systems), XAV939 (1 μM, Tocris) and ascorbic acid-2-phosphate (200 μg/mL, Sigma) for 24 hours. Day 2 cultures were further directed into the definitive hematopoietic lineage/hemogenic precursors by Activin A (15 ng/mL), GDC-0941 (0.25-2.5 μM), VEGF (100 ng/mL), XAV939 (1 μM) and ascorbic acid-2-phosphate (200 μg/mL) for 24 hours. Day 3 definitive hematopoietic progenitors were subsequently differentiated into early Runx1^lowGfi1^low hemogenic intermediates through day 4-5 treatment with BMP4 (50 ng/mL), TTNPB (500 nM), VEGF (100 ng/mL) and XAV939 (1 μM) for 48 hours, supplemented with SB-505124 (2 μM) on day 5. Day 5 populations were then dissociated into single cells, counted and reaggregated in individual wells of a low-adhesion V-bottom or U-bottom 96-well plate (e.g., Thermo Fisher, catalog no. 249952) with ˜15,000-20,000 cells seeded per well. Aggregates were cultured for 48 additional hours until day 7 in BMP4 (50 ng/mL), TTNPB (500 nM), VEGF (100 ng/mL), XAV939 (1 μM), SB-505124 (2 μM), SCF (25-50 ng/mL, R&D Systems), IL6 (10 ng/mL, R&D Systems) and IL6RA (250-1000 ng/mL, R&D Systems). All differentiation was conducted in serum-free CDM2 fully-defined basal media.

[1] = tested on: day 3 hemogenic precursors; assay: Hemogenic precursors into day 5 hematopoietic intermediates
Protocol: as §1

[2] = tested on: day 5 hematopoietic intermediates; assay: Day 5-7 continued differentiation of hematopoietic intermediates, factor withholding; settings: individually withholding the factor from the 8 factors, 48 hours
Protocol: as §1

lateral mesoderm = assay: Forelimb versus hindlimb progenitor specification from lateral mesoderm; settings: RA signaling activated for 24 hours during lateral mesoderm induction (D1-2)
Protocol: Undifferentiated hPSCs (wild-type H7 as well as TBX5-Venus V19-2 H9 hESCs) were maintained in mTeSR1 media on Geltrex-coated plates. As described, they were differentiated into mid primitive streak for 24 hours (D0-1; 30 ng/mL Activin+40 ng/mL BMP4+6 μM CHIR99021+20 ng/mL FGF2+100 nM PIK90) and subsequently differentiated into lateral mesoderm (D1-2; 1 μM A-83-01+30 ng/mL BMP4+1 μM C59), with the inclusion of 50 nM of TTNPB or 2 μM ATRA on D1-2 for trunk lateral mesoderm that was subsequently competent for forelimb differentiation.
Day 2 trunk lateral mesoderm was differentiated into day 3 forelimb progenitors (D2-3; 1 μM A-83-01+1 μM DMH1+3 μM CHIR99021). By contrast, day 2 non-trunk lateral mesoderm was differentiated into day 3 hindlimb progenitors (D2-3; 25 ng/mL Activin+1 μM DMH1+3 μM CHIR99021).

[3] = tested on: day 3 early somite progenitors; assay: Patterning of early somite progenitors into sclerotome or dermomyotome; settings: 21K with C59, 2-3 days
Protocol: Day 2 paraxial mesoderm was briefly washed (DMEM/F12) and further differentiated into day 3 early somite/somitomere precursors for 24 hours (1 μM A-83-01+250 nM LDN-193189+1 μM C59+500 nM PD0325901). Subsequently, day 3 early somites were dorsoventrally patterned into either ventral somites/sclerotome (5 nM 21K+1 μM C59) or dorsal somites/dermomyotome (3 μM CHIR99021+150 nM Vismodegib). Sclerotome induction was conducted for 48-72 hours (leading to day 5-6 ventral somite progenitors). […] Media was changed 24 hours for all steps. The Hedgehog agonist 21K, which has been previously described in, e.g., Brunton et al., 2009 the disclosure of which is incorporated herein by reference in its entirety, was commercially synthesized.
Day 3 early somites were briefly washed (DMEM/F12), treated with BMP4+CHIR99021+Vismodegib for 24 hours, washed again (DMEM/F12) and subsequently treated with CHIR99021 (3 μM)+21K (5 nM) for 24 hours. This day 5 dermomyotome was further empirically differentiated towards skeletal muscle-like progeny (using medium containing 2% horse serum, which has been previously described in, e.g., Xu et al. 2013, the disclosure of which is incorporated herein by reference in its entirety) for 12 days, yielding day 17 skeletal muscle-containing populations.
FIG. 11: A) To determine the length of time required for sclerotome differentiation, a qPCR timecourse was performed, encompassing undifferentiated hESCs (D0), day 2 hESC-derived paraxial mesoderm (D2 PXM), day 3 hESC-derived early somite progenitors, and hESC-derived day 3 early somite progenitors that were exposed to sclerotome inductive conditions (5 nM 21K+1 μM C59) for 24 or 48 hours. B) Description of EF1α-BCL2-T2A-GFP lentiviral construct (otherwise known as “C306”; top) and FACS plot of a stably-transduced polyclonal H9 hESC line with near-uniform expression of the BCL2-T2A-GFP transgene (green contour) by comparison to uncolored wild-type hESCs (bottom) (see above methods for details of derivation of the H9 BCL2-T2A-GFP hESC line). C) Higher-magnification picture of BCL2-T2A-GFP hESC-derived sclerotome ectopic bone grafts (originally described above in FIG. 4, panel E), showing that despite the near-ubiquitous expression of GFP throughout the ectopic bone graft (indicating its human provenance), the blood vessels are clearly GFP-negative and therefore presumably derived from the mouse host; scale bar=1 mm. […] L) Description of EF1a-BCL2-T2A-GFP lentiviral construct (otherwise known as “C306”; top) and FACS plot of a stably-transduced polyclonal H9 hESC line with near-uniform expression of the BCL2-T2A-GFP transgene (green contour) by comparison to uncolored wild-type hESCs (bottom) (see the methods described herein for details of derivation of the H9 BCL2-T2A-GFP hESC line). M) Description of UBC-Luciferase-T2A-tdTomato lentiviral construct (top); bioluminescent assay of cultured H9 UBC-Luciferase-T2A-tdTomato hESCs validates that these cells are luciferase-expressing in vitro (bottom).

[4] = tested on: hESC-derived lateral mesoderm; assay: Lateral mesoderm patterning, qPCR
Protocol: Subsequently, day 1 anterior primitive streak was briefly washed (DMEM/F12) and differentiated towards day 2 paraxial mesoderm for 24 hours (1 μM A-83-01+3 μM CHIR99021+250 nM LDN-193189+20 ng/mL FGF2). Separately, day 1 mid primitive streak was differentiated towards day 2 lateral mesoderm for 24 hours (1 μM A-83-01+30 ng/mL BMP4+1 μM C59; with 2 μM SB-505124 sometimes used instead of A-83-01).
(§2) C) To reveal the possible identity of non-cardiac mesoderm lineages that were contaminating cardiac mesoderm-containing cultures, NKX2.5-GFP hESCs were differentiated towards mid primitive streak (day 1) and were differentiated towards a heterogeneous population containing cardiac mesoderm (day 3) by treatment with SB-505124+BMP4+C59 (without FGF2) on days 2-3 of differentiation. FACS was performed on day 3 to purify either NKX2.5-GFP^+ or NKX2.5-GFP^− cells (top subpanels) which were sorted for qPCR (bottom subpanels). Gene expression was normalized to expression of a gene in the NKX2.5-GFP^+ fraction (dotted line). D) Timecourse of gene expression in hESCs differentiating towards mid primitive streak and lateral mesoderm, with treatment by SB-505124+BMP4+C59 on days 2-3 of differentiation. […] G) To assess whether a stabilized vitamin C analog (ascorbic acid-2-phosphate) (AA2P) enhanced cardiac mesoderm differentiation into cardiomyocytes, day 4 hESC-derived cardiac mesoderm was exposed to BMP4 (30 ng/mL)+XAV939 (1 μM) for 48 hours in the presence or absence of 200 μg/mL AA2P and qPCR was conducted of day 6 populations; qPCR data were normalized such that expression values in the highest-expressing sample was normalized=1.0. […] J) In the mouse embryo, endocardium (progenitors to heart-affiliated endothelium) are marked by transient coexpression of pan-heart marker Nkx2.5 together with endothelial markers (Ferdous et al., 2009; Stanley et al., 2002).

[5] = tested on: hESC-derived cardiac mesoderm; assay: Cardiac mesoderm differentiation into cardiovascular fates, qPCR; settings: added to WNT blockade with BMP activation
Protocol: Day 2 lateral mesoderm was differentiated into day 4 cardiac mesoderm by treating them with 1 μM A8301+30 ng/mL BMP4+1 μM C59+20 ng/mL FGF2 for 48 hrs, or alternatively, with 1 μM A8301+30 ng/mL BMP4+20 ng/mL FGF2 for 24 hrs followed by 25 ng/mL Activin+30 ng/mL BMP4+1 μM C59 for the next 24 hrs (schema in FIG. 5E; positive effect of mid-stage Activin shown in FIG. 12K). Subsequently, day 4 cardiac mesoderm was briefly washed (DMEM/F12) and treated with 30 ng/mL BMP4+1 μM XAV939+200 μg/mL 2-phospho-ascorbic acid (Sigma) for 48-96 hrs to yield day 6-8 cardiomyocyte-containing populations. Spontaneously contracting cardiomyocyte foci were evident from day 8 onwards.
as §2

## O=c1[nH]c(-c2ccc(C(F)(F)F)cc2)nc2c1CSCC2 [XAV939, 3,5,7,8-Tetrahydro-2-[4-(trifluoromethyl)phenyl]-4H-thiopyrano[4,3-d]pyrimidin-4-one]
SOX17-mCherry hESCs; treatment on day 2-3, 24 hours
  SOX17+ cells formed by day 3: doubled the formation of SOX17^+ cells
[1]; day 5
  GATA1 expression: pivotal to prevent BMP-induced GATA1 expression
[2]
  GFI1B expression: strongly diminished

## C/C(=C\c1ccc(C(=O)O)cc1)c1ccc2c(c1)C(C)(C)CCC2(C)C [TTNPB]
[1]; day 5
  TBX20 expression: important to downregulate TBX20 expression
[1]; withdrawal of the factor from BMP, VEGF, XAV939, TTNPB
  RUNX1 expression by day 5: crippled RUNX1 expression
Lateral mesoderm
  forelimb transcription factor TBX5 expression on D3: paramount for lateral mesoderm to subsequently express key forelimb transcription factor TBX5

## Cc1cc(-c2ccc(CC(=O)Nc3ccc(-c4cccnc4)cc3)cc2)ccn1 [C59, 4-(2-Methyl-4-pyridinyl)-N-[4-(3-pyridinyl)phenyl]benzeneacetamide]
[3]
  sclerotome fate induction: efficiently induced the sclerotome fate
[4]; day 2 lateral mesoderm, SB-505124+BMP4 with CHIR99021 or C59, 24 hours
  lateral mesoderm fate (qPCR): induced an anterior lateral mesoderm/cardiac mesoderm fate
[4]; last 12 hrs C59 or 3 μM CHIR in addition to BS
  pan-lateral mesoderm marker FOXF1 expression: not markedly changed

## O=C1O[C@H]([C@@H](O)CO)C(O)=C1OP(=O)(O)O [ascorbic acid-2-phosphate]
[5]
  cardiomyocyte differentiation: further enhanced
SOX17-mCherry hESCs; included on days 2 and 3
  efficiency of CD34+ progenitors produced by day 3: moderately enhanced the efficiency of CD34^+ progenitors
